Legend:
[1] = target: T1, NDM-1 (New Delhi metallo-β-lactamase-1) (Klebsiella pneumoniae, UniProt C7C422); assay: steady-state hydrolysis kinetics at […] nm, Km by Lineweaver-Burk plot; type: biochemical
T1 construct: gene blaNDM-1

[2] = target: T1, NDM-1 (New Delhi metallo-β-lactamase-1); assay: nitrocefin hydrolysis assay with purified enzyme, dose-response; similar with […] Triton X-100; type: biochemical

T1 sequence (C7C422 29-270 limits assumed): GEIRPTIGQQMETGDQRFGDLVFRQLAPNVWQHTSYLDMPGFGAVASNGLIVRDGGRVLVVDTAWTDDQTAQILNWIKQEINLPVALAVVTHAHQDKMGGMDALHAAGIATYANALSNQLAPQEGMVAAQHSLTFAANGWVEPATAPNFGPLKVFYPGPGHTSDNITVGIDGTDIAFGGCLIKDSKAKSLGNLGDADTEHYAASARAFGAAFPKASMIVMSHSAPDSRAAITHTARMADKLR

Compound | Km [1] [µM] | IC50 [2] [µM]
O=C(Cc1cccs1)N[C@@H]1C(=O)N2C(C(=O)O)=C(/C=C/c3ccc([N+](=O)[O-])cc3[N+](=O)[O-])CS[C@H]12 [nitrocefin] | 9.54 ± 0.43 | 
Cc1cc(C)c(NC(=O)CSc2ncc3c(n2)-c2ccc(Cl)cc2N(C)S3(=O)=O)c(C)c1 [VNI-24] |  | 37.6 ± 0.9
CCOc1ccc(S(=O)(=O)N2CCN(c3cc(Nc4ccc(C)cc4)nc(C)n3)CC2)cc1 [VNI-34] |  | 31.4 ± 1.2
O=C(Nc1cccc2ccccc12)C1CCN(S(=O)(=O)c2cccc3nonc23)CC1 [VNI-41] |  | 29.6 ± 1.3
